This note sets out measurements from publication PMC4728507, “Bioactive Polycyclic Quinones from Marine Streptomyces sp. 182SMLY” (Marine Drugs, 2016).

SMILES strings stand for the structures. In brackets after ≈: the same amount, converted by molar mass. Like-named read-outs stand apart in the source and are kept apart here.

The subject of data set [1] is glioma U251 cells. As to the kind of experiment: SRB assay, proliferation of glioma U251 cells. The data set is classed as cell-based. Conditions: Homo sapiens, U-251, 72 h, read-out: IC50 inhibiting the proliferation of cells, U251. How it is done: (§1) The compounds 1 and 2 were assayed for their activities inhibiting the proliferation of glioma C6, U251, U87-MG, and SHG-44 cells using the sulforhodamine B (SRB) assay. The SRB assay is a method that measures total cellular protein content for evaluating the activity of tested compounds against the proliferation of tumor cells. Doxorubicin (DOX) was used as a positive control. Glioma cells were treated with tested compounds for 72 h at different concentrations. […] N-acetyl-N-demethylmayamycin (1) and streptoanthraquinone A (2) were also assayed for their activity against normal human astrocytes (HA). The initial assay was conducted on the concentrations from 0.35 to 7.0 μM for 1 and on those from 1.65 to 16.5 μM for 2. The cell viability of HA cells from each tested concentration of both compounds was 100%.
(§2) Human glioma U251 and rat glioma C6 cells were cultured in DMEM (Dulbecco’s Modified Eagle Medium, Gibco, Thermo Fisher Scientific Inc., Waltham, MA, USA) with 10% FBS (Fetal Bovine Serum, PAA Laboratories Inc., Dartmouth, MA, USA), human glioma SHG-44 in RPMI-1640 Medium (Roswell Park Memorial Institution 1640 Medium, Gibco, Thermo Fisher Scientific Inc., Waltham, MA, USA), human glioma U87-MG cells in MEM (Minimum Essential Medium, Gibco), and normal human astrocytes (HA) in AM (Astrocyte Medium, ScienCell, Cat. No. 1801). All cells were incubated at 37 °C in a humidified incubator with 5% CO2. Cells after the third generation were used for experiment.
(§3) The SRB assay was used to evaluate the activity of the isolated compounds in inhibiting the proliferation of glioma U87-MG, U251, SHG-44, and C6 cells. Doxorubicin (DOX) was used as the positive control. Briefly, glioma cells were plated in a 96-well plate and then treated with different concentrations of tested compound after cells adhesion for 24 h. […] After dried, dye was dissolved in a 10 mM Tris buffer and measured at 515 nm on a microplate reader (BioTech, Winooski, VT, USA).

The next data set relates to glioma U87-MG cells. As to the kind of experiment: SRB assay, proliferation of glioma U87-MG cells. The data set is classed as cell-based. Conditions: Homo sapiens, U-87 MG, 72 h, read-out: IC50 inhibiting the proliferation of cells, U87-MG. On the procedure: as §1, §2, §3
On the technique in general: Sulforhodamine B stains cellular protein and so reports cell mass.

A further data set concerns glioma SHG-44 cells. As to the kind of experiment: SRB assay, proliferation of glioma SHG-44 cells. The data set is classed as cell-based. Conditions: Homo sapiens, 72 h, read-out: IC50 inhibiting the proliferation of cells, SHG-44. How it is done:
as §1, §2, §3

The next data set concerns glioma C6 cells. Kind of data set: SRB assay, proliferation of glioma C6 cells. The data set is classed as cell-based. Conditions: Rattus norvegicus, 72 h, read-out: IC50 inhibiting the proliferation of cells, C6. On the procedure:
as §1, §2, §3

A short description of data set [2]: Activity against normal human astrocytes (HA). The data set is classed as cell-based. Conditions: human, normal human astrocytes (HA), initial assay, read-out: Cell viability of HA cells. How it is done: as §1, §2
Data set [3] relates to normal human astrocytes (HA). Kind of data set: Activity against normal human astrocytes (HA). It is filed as cell-based. Conditions: Homo sapiens, Astrocyte; HA cells, second assay in higher concentrations. How it is done: as §1, §2
Data set [4] deals with glioma U251 cells. Kind of data set: Apoptosis in glioma U251 cells, flow cytometry with Annexin V-FITC/PI double staining. The data set is classed as cell-based, human. Conditions: 36 h, control 3.58%. How it is done:
N-acetyl-N-demethylmayamycin (1) and streptoanthraquinone A (2) were further tested for their ability to induce apoptosis in glioma U251 cells by flow cytometry using Annexin V-FITC/PI double staining.
Figure 6 N-acetyl-N-demethylmayamycin (1) and streptoanthraquinone A (2) induced apoptosis in the glioma U251 cells quantified by cytometric analysis. U251 cells were treated with 1 (0.7 μM) or 2 (3.3 μM) for 36 h and then stained with Annexin-V FITC and PI double staining (B1: necrotic cells; B2: late apoptotic cells; B3: normal glioma cells; B4: early apoptotic cells). TEXT PRINTED IN THE PICTURE: 1: U251: B1: 2.87% (0.7 μM); U251: B2: 31.39% (0.7 μM); U251: B3: 54.79% (0.7 μM); U251: B4: 10.95% (0.7 μM) | 2: U251: B1: 3.00% (3.3 μM); U251: B2: 29.85% (3.3 μM); U251: B3: 56.75% (3.3 μM); U251: B4: 10.40% (3.3 μM) DOUBTS OF THE COPYIST ABOUT THIS PICTURE: 1, B3: 54.79% is partly covered by plot points, digits not certain / 2, B3: 56.75% is partly covered by plot points, digits not certain / The CON (untreated control) plot prints B1 0.28%, B2 2.17%, B3 96.14% (partly covered by plot points, 96.14 or 96.44), B4 1.41%; left out of lines because it is not a substance
(A flow cytometer gives signals particle by particle.)

For data set [5], the system named is methicillin-resistant Staphylococcus aureus ATCC 43300. Kind of data set: Antimicrobial assay, micro broth dilution, MRSA. It is filed as cell-based. Conditions: ATCC43300, ATCC 43300, micro broth dilution, read-out: MIC, growth of methicillin-resistant S. aureus. How it is done: (§4) Compounds 1 and 2 were also determined for their activities against methicillin-resistant Staphylococcus aureus ATCC 43300 and Escherichia coli ATCC 25922.
(§5) The micro broth dilution method as described in the previous report was used to determine the antimicrobial activity of the isolated compounds against the methicillin-resistant Staphylococcus aureus ATCC 43300 and Escherichia coli ATCC 25922. Norfloxacin, a broad-spectrum antibiotic against both Gram-positive and Gram-negative bacteria, was used as the positive control.
In general terms: Dilution methods test growth across graded concentrations, often in twofold steps.

Data set [6] relates to Escherichia coli ATCC 25922. Kind of data set: Antimicrobial assay, micro broth dilution, E. coli. The data set is classed as cell-based. Conditions: ATCC 25922, micro broth dilution. How it is done:
as §4, §5

The test system of data set [7] is glioma C6, U251, U87-MG, and SHG-44 cells. As to the kind of experiment: SRB assay, four glioma cell lines (summary ranges). The data set is classed as cell-based. Conditions: 72 h, read-out: IC50 range over four tested glioma cell lines. How it is done:
as §1
The SRB assay was used to evaluate the activity of the isolated compounds in inhibiting the proliferation of glioma U87-MG, U251, SHG-44, and C6 cells. Doxorubicin (DOX) was used as the positive control. Briefly, glioma cells were plated in a 96-well plate and then treated with different concentrations of tested compound after cells adhesion for 24 h. After 72 h of the treatment, cells were fixed with 50 μL of a 10% cold TCA solution for 1 h at 4 °C, washed with distilled water five times, and then dried at room temperature. The dried cells were stained with 50 μL of 0.4% SRB for ten minutes and rinsed with a 1% acetic acid solution five times. After dried, dye was dissolved in a 10 mM Tris buffer and measured at 515 nm on a microplate reader (BioTech, Winooski, VT, USA).

In general, viability refers to a read-out of living cells in per cent, often relative to untreated cells. In general, MIC refers to the lowest concentration that inhibits growth of the organism. As to `CC(=O)NC1CC(c2c(O)c3c(c4c(O)cc(C)cc24)C(=O)c2cccc(O)c2C3=O)OC(C)C1O` (centres unmarked) [Compound 1, N-acetyl-N-demethylmayamycin], the IC50 in the data set with glioma U251 cells [1] is 0.7 ± 0.2 µM; in the data set on glioma U87-MG cells, 1.4 ± 0.1 µM; in the data set with glioma SHG-44 cells it was 3.9 ± 0.4 µM; in the data set with glioma C6 cells it was 0.5 ± 0.1 µM; in data set [3] it was 25 ± 1.3 µM; in data set [7] it was 0.5 to 3.9 µM. Besides, in data set [2] (each tested concentration from 0.35 to 7.0 μM), the viability stood at 100%. In addition, in the data set on glioma U251 cells [4] (U251, 0.7 μM), the “Increase of total apoptotic cells (early and late) compared to the control” value is given as 38.76%. Besides, the MIC in [5] is 20 µM (≈ 9.83 µg/mL). In data set [6], the “MIC, growth of E. coli” value is given as “no activity”.

Take `CC(=O)OC1c2c3c(c(O)c4c2C(Cc2c(O)cc(C)cc2-4)OC1C)C(=O)c1cccc(O)c1C3=O` (centres unmarked) [Compound 2, streptoanthraquinone A]: the IC50 in the data set on glioma U251 cells [1] is 3.3 ± 0.3 µM; in the data set with glioma U87-MG cells, 4.6 ± 0.3 µM; in the data set with glioma SHG-44 cells it was 6.5 ± 1.1 µM; with glioma C6 cells, 7.3 ± 1.4 µM; in [3] it was over 100 µM; in [7] it was 3.3 to 7.3 µM. Besides, the viability in data set [2] (each tested concentration from 1.65 to 16.5 μM) was 100%. The “Increase of total apoptotic cells (early and late) compared to the control” value with glioma U251 cells [4] (U251, 3.3 μM) was determined as 36.67%. Besides, in [6], the “MIC, growth of E. coli” value was “no activity”.

As for `COc1cccc2c1C(=O)c1c(O)c3c(c(O)c1C2=O)C[C@@](O)(C(=O)CO)C[C@@H]3O[C@H]1C[C@H](N)[C@H](O)[C@H](C)O1` [Doxorubicin (DOX), Doxorubicin, reference compound], the IC50 with glioma U251 cells [1] is 6.7 ± 1.1 µM; in the data set with glioma U87-MG cells, 0.9 ± 0.1 µM; in the data set on glioma SHG-44 cells, 9 ± 0.8 µM; in the data set with glioma C6 cells, 1 ± 0.1 µM; in [7] it was 0.9 to 9 µM.

With `CCn1cc(C(=O)O)c(=O)c2cc(F)c(N3CCNCC3)cc21` [norfloxacin, reference compound], the MIC turned out to be 62.6 µM (≈ 20 µg/mL) in data set [5] and 31.3 µM (≈ 10 µg/mL) in data set [6] (Escherichia coli, ATCC25922, read-out: MIC, growth of E. coli).
